Reference: patent US4778817A, “Naphthyl imidazolyl compounds and pharmaceutical compositions” (priority 1985, dated 1988)
Counter-ions that a name gives are not always drawn.

Experiments:
[1] = tested on: Thrombin-induced TXA2 release; experiment: Thrombin-induced TXA2 release in platelet-rich human plasma in vitro (TXB2 determined radioimmunologically); format: cell-based; details: 0.5 h, relative to without test substance (=100%); for activity at 1 µM: test substance 10^-6 mol/l; for activity at 0.1 µM: test substance 10^-7 mol/l
Protocol: 2. Thrombin-induced TXA2 release in platelet-rich human plasma in vitro
Blood is taken, by careful cannulation of the antecubital vein, from apparently healthy male and female volunteers, who have taken no medicaments in the preceding 10-day period, and is immediately stabilized with sodium citrate (ad. 0.38%). Platelet-rich plasma (PRP) is obtained in the supernatant by centrifugation at 140×g for 15 minutes, and the platelet content of this should be in the range 2.5-3.5×10^8 /ml. The platelets are sedimented by renewed centrifugation (10 min at 2,000×g), and then resolubilized in Tyrode's solution (about 7×10^7 platelets/ml, total volume per measurement 0.5 ml). After addition of test substance, the mixture is incubated at 37° C. for 10 min, and then 7.2×10^-7 M arachidonic acid and 0.5 U thrombin are added, and incubation is carried out at 37° C. for 30 min. This is stopped in an ice bath and, after addition of tracer and TXB2 -specific antibodies (NEN, Dreieich), the TXB2 content is determined radioimmunologically (TXA2 is unstable under the experimental conditions and thus cannot be measured. The stable hydrolysis product TXB2 is measured in its place). The measured variable is the relative TXB2 content in the platelet incubations from two or three different donors with and without (=100%) the test substance.
The following figures for the TXB2 release after administration of the test substance were determined, for example, for the compounds according to the invention by the method described above: […]

laser-induced thrombosis = experiment: Inhibition of laser-induced thrombosis; format: in vivo, Sprague-Dawley rats; details: one hour before start, rat mesentery arterioles
Protocol: 3. Inhibition of laser-induced thrombosis
The investigations of the compounds according to the invention in the model of laser-induced thrombosis are carried out on male or female Sprague-Dawley rats with a body weight of about 200 g. The animals to be investigated are premedicated s.c. with 0.1 mg of atropine sulfate in solution, and anesthetized i.p. with 100 mg of ketamine hydrochloride and 4 mg of xylazine per kg of body weight. Arterioles from the mesentery, with a diameter of 12-25 μm, are used for the investigation. During the measurement, the exposed mesentery is hyperfused with warmed physiological NaCl (37° C.) or is covered with degassed liquid paraffin. The beam of a 4 W argon laser (supplied by Spectra Physics, Darmstadt, FRG) is introduced coaxially into the inverted ray path of a microscope (ICM 405, LD-Epilan 40/0.60; supplied by Zeiss, Oberkochen, FRG) by means of a ray adaptation and adjustment system (supplied by BTG, Munich, FRG). The wavelength used is 514.5 nm, with an energy above the objective of 40 mW. The single-shot exposure time is 1/15 sec. The diameter of the effective laser beam on the vessel is 10 μm, and with repeated exposure the next shot takes place 5 μm upstream in each case, directly on the vessel wall. All the measurement procedures are filmed by video camera (Sony, Trinicon tube) and stored in a recorder (Sony, U-matic 3/4). A survey image of the terminal vessels which are to be investigated is provided by the transillumination method using the same microscope with low magnification (LD-Epilan 8/0.20). A video-analyzer and a correlator are used to determine the rate of flow in the arterioles under investigation. […]
The number of shots needed to induce a defined thrombus was counted. The frequency of the laser flashes was one lesion every 2 minutes, all the thrombi with a minimum size of 1/4 of the vessel radius which were formed during the observation period being counted and measured. The results of the experiment were statistically analyzed using the X^2 test (L. Cavalli-Sforza, Biometrie, Stuttgart, 1969, page 49 et seq.).

human platelets = experiment: Inhibition of the arachidonic acid-induced aggregation of human platelets in vitro; format: cell-based; details: human platelet-rich plasma; 2×10^-4 M arachidonic acid; preincubation 10 min at 37° C.
Protocol: 1. Inhibition of the arachidonic acid-induced aggregation of human platelets in vitro.
Blood is taken, by careful cannulation of the antecubital vein, from apparently healthy male and female volunteers, who have taken no medicaments in the preceding 10-day period, and is immediately stabilized with sodium citrate (ad. 0.38%). Platelet-rich plasma (PRP) is obtained in the supernatant by centrifugation at 140×g for 15 minutes, and the platelet content of this should be in the range 2.5-3.5×10^8 /ml (Coulter counter). The platelet aggregation is followed optically by measurement of the transmission of light in a Born aggregometer. The total volume of the test mix is 0.25 ml. The preincubation time at 37° C. with the test product is 10 min, and aggregation is then induced with 2×10^-4 M arachidonic acid. The test product is, as a rule, tested in five different concentrations in the PRP from three different donors. Dose-effect curves are drawn from the maximal aggregation amplitudes in each case, and the IC50 values* are determined graphically. The measurements are carried out in the period 1-6 hours after blood sampling. […]
The following IC50 values for the inhibition of the arachidonic acid-induced aggregation of human platelets in vitro were determined by the method described above for the compounds according to the invention: […]

Compound	activity at 1 µM [1] [%]	activity at 0.1 µM [1] [%]	activity at 0.01 µM ([1]; test substance 10^-8 mol/l) [%]	Number of laser shots to form a thrombus (compared with control) (laser-induced thrombosis; 1 mg/kg p.o.)	Number of laser shots to form a thrombus (compared with control) (laser-induced thrombosis; 5 mg/kg p.o.)	Number of laser shots to form a thrombus (compared with control) (laser-induced thrombosis; 10 mg/kg p.o.)	IC50 (human platelets) [nM]
Cc1cncn1Cc1ccc2cc(C(=O)O)ccc2c1.Cl [Example 4, 6-(5-Methyl-1-imidazolyl)methyl-2-naphthoic acid hydrochloride]	9	19	98	+16%	+53%	+96%	540
CC(c1ccc2cc(C(=O)O)ccc2c1)n1ccnc1 (stereo not shown) [Example 2, 6-[1-(1-Imidazolyl)ethyl]-2-naphthoic acid hydrochloride]	31	55					3000
